In patent US20100029654A1, “CARDIOVASCULAR COMPOSITIONS AND USE OF THE SAME FOR THE TREATMENT OF ALZHEIMER'S DISEASE” (MOUNT SINAI SCHOOL OF MEDICINE, priority 2006, published 2010):
Structures can show the parent of a compound that is named as a salt. Where two headings read alike, the source gives them in different places. Values belong to the molecule of their own block, whether it stands above or below them.

How the values were obtained:
Tg2576 mice [1] = assay: tolerability: body weight, fluid consumption, glucose tolerance; details: for fluid intake: Tg2576, short-term dosing
Aβ1-42 and Aβ1-40 = Aβ1-42 and Aβ1-40 content in peripheral blood (plasma, serum) by ELISA; format: in vivo, mouse; details: for plasma Aβ1-42 levels (and Aβ1-40): Tg2576, doses ~3 fold lower than minimal hypertension dose; for plasma Aβ1-42 (and Aβ1-40): Tg2576, within the dosage range prescribed for hypertension
Protocol: (§1) FIG. 7. […] Bar graphs represent group mean±SEM, n=3 mice per group. 2-tailed t-test: *P<0.05.
(§2) Assessment of AD-type amyloid neuropathology in Tg2576 mice. For quantitative assessment of Aβ peptide in the brain, frozen pulverized tissue was homogenized in 5.0 M guanidine buffer, diluted (1:10) in phosphate-buffered saline containing 0.05% (v/v) Tween-20 and 1 mM Pefabloc protease inhibitors (Roche Biochemicals, Indianapolis, Ind.), and centrifuged for 20 min at 4° C. […] Serum Aβ content was analyzed using the same ELISA Kit, following manufacturer instructions.

Aβ1-40 = Aβ1-40 content in conditioned medium of primary cortico-hippocampal neuron cultures from Tg2576 mice (ELISA; primary and secondary dose-response screening); format: cell-based, mouse; details: for activity at 100 µM: 24 h, read-out: Ab1-40 (% of ctl); for activity at 100 µM / Ab1-40 (% of ctl): drug 100 μM; for reduced Aβ1-40: <85% of ctl
Method in brief: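 Primary cortico-hippocampal neurons from embryonic Tg2576 mice were plated at 1.0×10^5 cells per well on poly-D-lysine-coated 96-well plates in Neurobasal with 2% B27, 0.5 mM L-glutamine and 1% penicillin-streptomycin. Cultures received drug in 1% DMSO, and Aβ1-40 in the conditioned medium was measured by BioSource ELISA 24 hours after treatment, relative to vehicle controls.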

Aβ1-42 [2] = assay: Aβ1-42 content in conditioned medium of primary cortico-hippocampal neuron cultures from Tg2576 mice (ELISA; primary and secondary dose-response screening); format: cell-based, mouse; details: for activity at 100 µM: Mus musculus, Neuron, 24 h, read-out: Ab1-42 (% of ctl); for activity at 100 µM / Ab1-42 (% of ctl): drug 100 μM
Method in brief: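 This screen tested cardiovascular drugs for Aβ-lowering in Tg2576 embryonic cortico-hippocampal neuron cultures plated at 1.0×10^5 cells per well in poly-D-lysine-coated 96-well plates with Neurobasal/B27 medium. Drugs at 100 μM were added directly to the medium in duplicate, with 1% DMSO alone as the control. Conditioned medium was then collected, and its Aβ1-42 level was quantified with BioSource ELISA kits.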

Tg2576 mice [3] = assay: blood pressure (systolic, diastolic, MAP) by tail-cuff; format: in vivo, mouse
Protocol: FIG. 1 Tg2576 mice are characterized by normal blood pressure under basal conditions. Baseline measurements of systolic, diastolic blood pressure, and mean arteriole blood pressure (MAP) in ˜11 month old female Tg2576 mice. Strain-, age-, gender-matched WT mice were measured using a commercial blood pressure analysis system designed specifically for small rodents (Hatteras Instruments, NC). Following manufacturer's instruction, mice were temporarily immobilized in a restraining chamber and an inflated tail-cuff wrapped around the tail was used to measure the systolic pressure, diastolic pressure, and MAP. Each blood pressure determination was calculated as the mean of 10 individual measurements per animal (n=6-10 group).
FIG. 6A-C show body weight of mice in response to ˜3 weeks of treatment. […] FIG. 6D-F show the assessment of systolic, diastolic, and MAP blood pressure in Tg2576 mice in response to drug doses below or within the range of those prescribed in hypertension. Blood pressure measurements were conducted using a commercial blood pressure analysis system designed specifically for small rodents (Hatteras Instruments, NC). Following manufacturer's instruction, mice were temporarily immobilized in a restraining chamber and an inflated tail-cuff wrapped around the tail was used to measure pressures. Each blood pressure determination was calculated as the mean of 10 individual measurements per animal. In A-F, values represent mean±SEM values, n=3-5 mice per group. 2-tailed t-test: *P<0.05.
Assessment of blood pressure and glucose utilization. Mouse blood pressure was routinely recorded using a commercial blood pressure analysis system designed specifically for small rodents (Hatteras Instruments, NC). […] Briefly, mice were given a single dose of glucose post-prandially (i.p. 2 g/kg body weight). Blood was collected from the tail-vein periodically over a 2-hour period. Blood glycemic content was assessed using the OneTouch LifeScan System, (LifeScan, Milpitas, Calif.) following the manufacturer's instruction.

[4] = system: primary cortico-hippocampal neuron cultures; assay: MTT in primary screening
[5] = system: primary cortico-hippocampal neuron cultures; assay: lactate dehydrogenase (LDH) activity assay in parallel neuron cultures
Protocol: For in vitro treatments drugs available from “The Spectrum Collection” in stocks of 10 mM in DMSO were applied directly to cultures to the desired concentrations (final 1% DMSO); control primary neuron cultures from Tg2576 embryos were treated with vehicle resulting in a final 1% DMSO.
Cell viability was assessed using a commercial available LDH assay kit according to the manufacture's instruction (Promega).

Aβ1-42 [6] = details: Tg2576, short-term dosing, subclinical or clinical concentrations
Protocol: Cognitive behavioral function was assessed using the Morris water maze (MWM). After completion of the MWM test, blood pressure measurements were quantified as describe in FIG. 1 legends. Following MWM testing and blood pressure assessment, mice were sacrificed for neuropathological assessment. […] C, (inset), total immunoreactive APP content normalized to β-actin signal. In C-D, bar graphs represent group mean±SEM, n=6-10 mice per group.
as §1, §2

Aβ1-42 [7] = assay: Aβ1-42 content in conditioned medium of primary cortico-hippocampal neuron cultures from Tg2576 mice (ELISA; primary and secondary dose-response screening); format: cell-based, mouse; details: Mus musculus, Neuron; Table IV, dose-response 0.01-100 μM; read-out: EC50 (M): Ab-lowering activity
[8] = stability of valsartan salt (solid, aqueous; TLC); format: physicochemical; details: 50 and 200 mg/L, 3-10 week old solutions, room temperature, dark
Protocol: The solution is cooled to room temperature slowly without external cooling to discourage precipitation of the drug.
The solution was then cooled to room temperature slowly without external cooling to discourage precipitation of the drug. […] Quality was assessed in 3-10 week old solutions stored at room temperature in dark compartments. Drinking solutions for the in vivo treatments were freshly prepared twice a week. Liquid consumption and animal body weight were monitored weekly throughout the study.

[9] = propranolol-HCL detection in brain and plasma (LC-MS); format: in vivo, mouse; details: Tg2576, 10 mg/kg/day in drinking water, three weeks
Protocol: In this short-term dosing study, Tg2576 mice were treated with propranolol-HCL for three-weeks at a concentration ˜3 fold lower than used for treatment of hypertension (10 mg/kg/day delivered in the drinking water). At the time of sacrifice, emicerebellum (pool from N=3 per group) was homogenized 0.4 M perchloric acid, centrifuged (3,000×g; 15 min), and the […] layer evaporated by heating (Botterblom et al., 1993), while the residual diethyl-ether and acidic aqueous layer was used for analysis. Plasma from propranolol-HCL treated mice (pooled, n=3 per group) was extracted using a modified protocol (Martin et al., 2004) mixing equal volumes of plasma in 0.1% NaOH. Propanolol-HCL was then extracted by ethyl acetate and centrifuged. The acidic […] layers were then dried, samples were analyzed by tandem liquid chromatography—mass spectrometry, and concentration was determined against an internal standard, in a range of quantification of n between 1-1,000 ng/ml.

β-secretase = β-secretase (Mus musculus, UniProt P56818); details: Tg2576, propranolol-HCL, neocortex
Protocol: (§3) Brain samples were homogenized in supplied buffers. Homogenate was then added to secretase-specific APP peptide conjugated to the reporter molecules EDANS and DABCYL. […] Cleavage of APP peptide by secretase physically separates the EDANS and DABCYL reporter molecules, allowing for the release of a fluorescent signal. The level of secretase enzymatic activity is proportional to the fluorometric reaction in the homogenate (R & D Systems).

α-secretase = details: Tg2576, propranolol-HCL, neocortex
Protocol: as §3

γ-secretase = details: Tg2576, propranolol-HCL, neocortex
Protocol: as §3

Aβ peptides = assay: Aβ peptide profile in the brain by IP-MS; details: Tg2576, 10 or 60 mg/Kg/day, 3 weeks
[10] = Primary Screening, table sorted by Aβ1-40
[11] = primary screening, Tg2576 neuron cultures, table sorted by Aβ1-42
[12] = Tg2576, 3 weeks, doses within the range used for hypertension
[13] = Tg2576, 3 weeks, doses ~3 fold below the minimal hypertension dose
[14] = primary screening, table sorted by Aβ1-42

β-secretase, sequence (P56818 46-501): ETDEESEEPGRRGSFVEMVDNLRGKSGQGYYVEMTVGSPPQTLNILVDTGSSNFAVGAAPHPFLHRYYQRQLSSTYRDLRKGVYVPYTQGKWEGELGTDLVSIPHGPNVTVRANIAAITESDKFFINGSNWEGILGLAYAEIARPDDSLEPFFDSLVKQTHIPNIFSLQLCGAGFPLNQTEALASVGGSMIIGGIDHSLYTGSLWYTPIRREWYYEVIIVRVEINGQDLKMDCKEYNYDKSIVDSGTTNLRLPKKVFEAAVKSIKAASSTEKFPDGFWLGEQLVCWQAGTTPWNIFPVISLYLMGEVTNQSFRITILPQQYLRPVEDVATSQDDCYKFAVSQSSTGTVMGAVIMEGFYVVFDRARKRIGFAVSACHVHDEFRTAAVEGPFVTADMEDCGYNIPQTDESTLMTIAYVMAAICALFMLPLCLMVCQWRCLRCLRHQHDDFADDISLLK

EC50 (Aβ1-40; Mus musculus, Neuron, Table IV, dose-response 0.01-100 μM, read-out: EC50 (M): Ab-lowering activity Abeta1-40): 3.64e-05 M
MTT (% of ctl) [4, 10]: 52.4 % of ctl
MTT (% of ctl) [4, 14]: 52.4 % of ctl
LDH (% of ctl) [5, 10]: 104.2 % of ctl
LDH (at 5F-5 M) ([5]; Table IV): no change
LDH (% of ctl) [5, 14]: 104.2 % of ctl
EC50 (Aβ1-42 [7]): 0.000119 M
Compound: COC(=O)C1=C(C)NC(C)=C(C(=O)OCCN(C)Cc2ccccc2)C1c1cccc([N+](=O)[O-])c1 (stereo not drawn) [Nicardipine Hydrochloride]
fluid intake (Tg2576 mice [1]): did not significantly influence the amount of fluid intake
plasma Aβ1-42 levels (and Aβ1-40) (Aβ1-42 and Aβ1-40): prevented plasma accumulation of Aβ1-42 levels
plasma Aβ1-42 (and Aβ1-40) (Aβ1-42 and Aβ1-40): lowering responses were found
activity at 100 µM (Aβ1-40; Mus musculus, Neuron, Primary Screening, table sorted by Aβ1-40): 10.7%
activity at 100 µM (Aβ1-40; Mus musculus, Neuron, primary screening, Tg2576 neuron cultures, table sorted by Aβ1-42): 10.7%
reduced Aβ1-40 (Aβ1-40; primary screening): reduced Aβ1-40
activity at 100 µM (Aβ1-42 [2]; [10]): 27.6%
activity at 100 µM (Aβ1-42 [2]; [11]): 27.6%
reducing Aβ1-42 (Aβ1-42 [2]; primary screening, <85% of ctl): useful in reducing Aβ1-42
systolic, diastolic, MAP blood pressure (Tg2576 mice [3]; [12]): decreased systolic, diastolic, and MAP blood pressure
systolic, diastolic, MAP blood pressure (Tg2576 mice [3]; [13]): did not significantly influence either systolic, diastolic or MAP blood pressure
systolic, diastolic, MAP blood pressure (Tg2576 mice [3]; Tg2576, any dose 3-18 mg/kg/day): No detectable changes
steady state levels of Aβ1-42 in hippocampal formation or cerebral cortex (Aβ1-42 [6]): significantly reduced steady state levels of Aβ1-42

stability of drinking solutions by TLC analysis [8]: no change in the recovered compound
Compound: CCCCC(=O)N(Cc1ccc(-c2ccccc2-c2nnn[nH]2)cc1)[C@H](C(=O)O)C(C)C [Sodium valsartan]

Compound: CC(C)NCC(O)COc1cccc2ccccc12.Cl (racemic) [Propranolol Hydrochloride (+/−)]
fluid intake (Tg2576 mice [1]): did not significantly influence the amount of fluid intake
tolerability (body weight) (Tg2576 mice [1]; Tg2576, short-term, 3 weeks, doses ~3 fold below or within hypertension range, drinking water): well-tolerated
level in the cerebellum [9]: nM levels
plasma Aβ1-42 levels (and Aβ1-40) (Aβ1-42 and Aβ1-40): prevented plasma accumulation of Aβ1-42 levels
plasma Aβ1-42 (and Aβ1-40) (Aβ1-42 and Aβ1-40): lowering responses were found
Ab1-40 (% of ctl) (Aβ1-40; [10]): 65.2 % of ctl
reduced Aβ1-40 (Aβ1-40; primary screening): reduced Aβ1-40
Ab1-40 (% of ctl) (Aβ1-40; [11]): 65.2 % of ctl
Ab1-42 (% of ctl) (Aβ1-42 [2]; [10]): 93.4 % of ctl
Ab1-42 (% of ctl) (Aβ1-42 [2]; [11]): 93.4 % of ctl
systolic, diastolic, MAP blood pressure (Tg2576 mice [3]; [12]): decreased systolic, diastolic, and MAP blood pressure
systolic, diastolic, MAP blood pressure (Tg2576 mice [3]; [13]): did not significantly influence either systolic, diastolic or MAP blood pressure
β-secretase activity in the brain (β-secretase): selective decrease in β-secretase activity
α-secretase activity in the brain (α-secretase): no detectable change
γ-secretase activity in the brain (γ-secretase): no detectable change
Aβ1-34, Aβ1-37, Aβ1-38, Aβ1-39, Aβ1-40 in the brain (IP-MS) (Aβ peptides): dose-dependent reduction of most of the detectable Aβ species
Aβ1-42 content in the neocortex (IP-MS) (Aβ peptides): dose dependent decrease in Aβ1-42 content
steady state levels of Aβ1-42 in hippocampal formation or cerebral cortex (Aβ1-42 [6]): significantly reduced steady state levels of Aβ1-42
